As usually defined, the IC50 is the midpoint of a concentration-inhibition curve.

One assay addresses T1, PI3K-β (p110β/p85α) (Homo sapiens, UniProt P42338).
T1 construct: purchased Millipore #14-603
Kind of assay: PI3K isoforms biochemical assay (HTRF), PI3K-β. The conditions noted are these: read-out: PI3Kβ IC50. As for the experimental part: (§1) PI3Kα (p110α/p85α), PI3K-δ (p110δ/p85α), and PI3K-γ (p110γ) were purchased from Invitrogen (PV4789, PV 5274, and PV4787, respectively). PI3K-β (p110β/p85α) was obtained from Millipore (#14-603). The kinase activity was measured with the commercial PI3-kinase (human) HTRF™ assay available from Millipore (#33-017), following the manufacturer recommendations. The final enzyme concentration in the assay were 100 pM for PI3K-α and PI3K-δ, 500 pM for PI3K-β, and 4 nM for PI3K-γ. […] The enzyme was preincubated with the inhibitor and with 10 μM of PIP2 for 5 min. The enzymatic reaction was started by addition of ATP at 50 times the Km. The incubation was kept at 37 °C for 60 min. Stop solution and detection mix were added sequentially to the wells and plates were incubated 3 h in the dark at 25 °C. HTRF counts were measured in an EnVision reader (Perkin Elmer) using the recommended settings. Values were normalized against the control activity included for the enzyme (100% PI3 kinase activity, without compound). These values were plotted against the inhibitor concentration and were fit to a sigmoid dose-response curve by using Activity base software from IDBS.
(Time-resolved FRET reads energy transfer from a long-lived donor to a nearby acceptor.)

The next assay addresses T2, PI3K-δ (p110δ/p85α) (Homo sapiens, UniProt O00329).
T2 construct: purchased Invitrogen PV 5274
Put plainly: PI3K isoforms biochemical assay (HTRF), PI3K-δ. The conditions noted are these: read-out: PI3Kδ IC50. The procedure:
as §1

The subject of assay [1] is TRF1 protein in p53−/− MEFs nuclear extracts. Kind of assay: Western blot of nuclear TRF1 in p53−/− MEFs. The conditions noted are these: 10 μM. It is filed as cell-based, mouse. As for the experimental part: Blots were incubated with the primary antibodies anti-TRF1 1:500 (home-made monoclonal Rat, CNIO; TRF-78, ABCAM, ab10579) and with anti-SMC1 1:2000 (Bethyl Laboratories #A300-055A) as loading control. For nuclear protein preparation, the Nuclear/Cytosol Fractionation Kit (K266-100, BioVision) was used according to the manufactures protocol.

A further assay deals with T3, PI3K-γ (p110γ) (Homo sapiens, UniProt P48736).
T3 construct: purchased Invitrogen PV4787
T3 sequence (P48736 whole entry): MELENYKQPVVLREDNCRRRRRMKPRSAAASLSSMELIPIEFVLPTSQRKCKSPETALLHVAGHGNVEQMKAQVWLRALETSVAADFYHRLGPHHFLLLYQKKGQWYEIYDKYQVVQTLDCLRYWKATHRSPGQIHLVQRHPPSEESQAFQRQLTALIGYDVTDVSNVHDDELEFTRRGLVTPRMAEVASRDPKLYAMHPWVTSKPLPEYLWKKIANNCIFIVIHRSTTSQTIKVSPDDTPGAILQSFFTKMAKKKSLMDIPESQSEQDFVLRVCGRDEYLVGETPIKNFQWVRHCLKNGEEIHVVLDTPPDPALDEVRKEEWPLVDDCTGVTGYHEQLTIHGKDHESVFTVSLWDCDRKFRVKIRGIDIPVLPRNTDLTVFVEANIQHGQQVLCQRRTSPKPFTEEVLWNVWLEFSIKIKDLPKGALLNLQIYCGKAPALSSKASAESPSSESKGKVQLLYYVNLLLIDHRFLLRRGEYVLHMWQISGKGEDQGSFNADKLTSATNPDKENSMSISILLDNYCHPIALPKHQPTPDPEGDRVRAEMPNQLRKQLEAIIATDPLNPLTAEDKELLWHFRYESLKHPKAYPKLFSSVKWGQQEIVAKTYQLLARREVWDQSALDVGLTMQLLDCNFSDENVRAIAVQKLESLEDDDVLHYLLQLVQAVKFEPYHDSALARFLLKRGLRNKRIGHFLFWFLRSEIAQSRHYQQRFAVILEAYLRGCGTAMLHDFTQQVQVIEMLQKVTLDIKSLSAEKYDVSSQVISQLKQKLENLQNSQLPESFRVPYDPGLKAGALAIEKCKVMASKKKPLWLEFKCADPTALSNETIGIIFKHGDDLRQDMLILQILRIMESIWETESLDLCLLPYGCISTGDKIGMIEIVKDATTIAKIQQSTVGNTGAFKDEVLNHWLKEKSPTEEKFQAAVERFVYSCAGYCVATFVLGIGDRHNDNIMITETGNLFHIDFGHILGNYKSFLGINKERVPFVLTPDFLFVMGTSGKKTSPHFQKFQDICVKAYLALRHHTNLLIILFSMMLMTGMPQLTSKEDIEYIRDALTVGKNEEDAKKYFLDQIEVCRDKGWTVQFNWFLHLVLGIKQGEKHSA
Put plainly: PI3K isoforms biochemical assay (HTRF), PI3K-γ. To be noted: read-out: PI3Kγ IC50. As for the experimental part: as §1

For assay [2], the system named is TRF1 mRNA in CHA 9-3 lung cancer cells. Put plainly: TRF1 mRNA by qPCR. The conditions noted are these: 10 μM, 24 h. It is filed as cell-based, mouse.

T2 sequence (O00329 whole entry): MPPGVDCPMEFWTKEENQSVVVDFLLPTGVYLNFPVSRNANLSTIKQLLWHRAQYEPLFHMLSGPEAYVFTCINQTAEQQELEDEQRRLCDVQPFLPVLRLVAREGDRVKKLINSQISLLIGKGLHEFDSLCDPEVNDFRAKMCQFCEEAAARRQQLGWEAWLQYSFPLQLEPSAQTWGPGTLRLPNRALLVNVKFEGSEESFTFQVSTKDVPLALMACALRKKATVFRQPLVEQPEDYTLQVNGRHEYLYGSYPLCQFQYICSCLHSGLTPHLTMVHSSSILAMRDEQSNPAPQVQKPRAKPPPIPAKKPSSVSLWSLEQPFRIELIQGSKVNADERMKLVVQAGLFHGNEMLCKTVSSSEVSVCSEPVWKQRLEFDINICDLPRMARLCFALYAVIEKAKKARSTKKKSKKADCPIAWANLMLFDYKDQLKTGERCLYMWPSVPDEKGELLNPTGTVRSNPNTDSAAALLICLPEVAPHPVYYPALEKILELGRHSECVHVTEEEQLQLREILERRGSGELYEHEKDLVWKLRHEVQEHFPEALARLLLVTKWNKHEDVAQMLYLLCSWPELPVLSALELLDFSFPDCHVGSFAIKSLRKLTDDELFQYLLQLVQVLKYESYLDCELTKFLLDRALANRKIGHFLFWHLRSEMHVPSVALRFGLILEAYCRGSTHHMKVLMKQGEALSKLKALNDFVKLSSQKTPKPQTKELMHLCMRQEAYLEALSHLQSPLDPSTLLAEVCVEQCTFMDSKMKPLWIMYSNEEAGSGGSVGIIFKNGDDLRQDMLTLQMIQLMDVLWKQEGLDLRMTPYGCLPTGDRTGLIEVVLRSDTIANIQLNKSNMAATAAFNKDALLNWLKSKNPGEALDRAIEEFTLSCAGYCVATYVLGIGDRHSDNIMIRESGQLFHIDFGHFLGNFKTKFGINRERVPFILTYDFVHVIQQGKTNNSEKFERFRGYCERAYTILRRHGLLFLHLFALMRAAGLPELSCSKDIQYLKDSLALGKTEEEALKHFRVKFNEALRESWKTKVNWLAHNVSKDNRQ
T2 sequence (P27986 whole entry partner): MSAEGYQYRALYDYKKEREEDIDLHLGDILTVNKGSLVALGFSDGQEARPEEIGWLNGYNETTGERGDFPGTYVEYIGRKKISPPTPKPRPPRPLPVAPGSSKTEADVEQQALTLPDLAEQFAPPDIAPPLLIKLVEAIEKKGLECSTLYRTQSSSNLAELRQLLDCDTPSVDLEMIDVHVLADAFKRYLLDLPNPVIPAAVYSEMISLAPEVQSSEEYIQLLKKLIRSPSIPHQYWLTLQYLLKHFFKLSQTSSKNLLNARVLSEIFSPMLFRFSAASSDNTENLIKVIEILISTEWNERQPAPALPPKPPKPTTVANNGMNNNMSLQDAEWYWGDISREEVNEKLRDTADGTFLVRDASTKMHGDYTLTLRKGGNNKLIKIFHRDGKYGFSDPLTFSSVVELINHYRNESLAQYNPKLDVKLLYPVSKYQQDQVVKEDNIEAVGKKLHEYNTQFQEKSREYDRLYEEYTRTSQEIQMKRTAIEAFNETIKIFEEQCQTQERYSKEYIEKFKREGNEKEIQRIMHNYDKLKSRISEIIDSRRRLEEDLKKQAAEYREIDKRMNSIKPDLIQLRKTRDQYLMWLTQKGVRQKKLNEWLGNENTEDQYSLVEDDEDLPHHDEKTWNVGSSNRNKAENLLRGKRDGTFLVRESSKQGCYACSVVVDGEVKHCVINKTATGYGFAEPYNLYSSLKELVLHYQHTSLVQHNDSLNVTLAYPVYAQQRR
T1 sequence (P42338 whole entry): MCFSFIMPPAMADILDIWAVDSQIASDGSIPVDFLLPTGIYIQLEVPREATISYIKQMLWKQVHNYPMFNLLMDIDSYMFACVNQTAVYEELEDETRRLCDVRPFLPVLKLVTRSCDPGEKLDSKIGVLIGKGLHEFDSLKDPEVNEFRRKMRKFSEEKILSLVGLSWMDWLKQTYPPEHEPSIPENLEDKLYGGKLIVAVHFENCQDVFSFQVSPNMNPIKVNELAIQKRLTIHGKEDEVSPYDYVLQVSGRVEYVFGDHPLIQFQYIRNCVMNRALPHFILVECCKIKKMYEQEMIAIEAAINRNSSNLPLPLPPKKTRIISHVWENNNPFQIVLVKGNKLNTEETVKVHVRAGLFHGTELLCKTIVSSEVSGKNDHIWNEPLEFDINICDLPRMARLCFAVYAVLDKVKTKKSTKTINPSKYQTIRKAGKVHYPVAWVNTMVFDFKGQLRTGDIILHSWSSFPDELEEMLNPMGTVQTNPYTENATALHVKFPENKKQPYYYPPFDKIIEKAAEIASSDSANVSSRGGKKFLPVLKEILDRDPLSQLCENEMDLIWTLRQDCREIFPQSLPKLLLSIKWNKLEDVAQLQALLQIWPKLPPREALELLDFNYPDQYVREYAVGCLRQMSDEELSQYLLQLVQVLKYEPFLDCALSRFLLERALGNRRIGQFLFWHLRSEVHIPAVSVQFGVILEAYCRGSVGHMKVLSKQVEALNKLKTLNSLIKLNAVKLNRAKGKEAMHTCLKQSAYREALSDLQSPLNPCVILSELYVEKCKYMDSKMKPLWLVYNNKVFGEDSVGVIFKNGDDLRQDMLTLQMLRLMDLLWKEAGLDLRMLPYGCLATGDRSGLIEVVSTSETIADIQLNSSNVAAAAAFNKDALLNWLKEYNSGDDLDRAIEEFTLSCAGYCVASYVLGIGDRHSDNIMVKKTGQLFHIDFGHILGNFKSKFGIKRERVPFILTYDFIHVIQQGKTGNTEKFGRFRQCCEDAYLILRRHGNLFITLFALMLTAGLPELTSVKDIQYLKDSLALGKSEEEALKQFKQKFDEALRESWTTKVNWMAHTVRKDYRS
T1 sequence (P27986 whole entry partner): as the sequence (P27986 whole entry partner) above

As to `CS(=O)(=O)N1CCN(Cc2cc3c(N4CCOCC4)nc(-c4cnc(N)nc4)cn3n2)CC1` [ETP-47037], the half-maximal inhibitory concentration (IC50) on PI3K-β (p110β/p85α) is 49.2 nM; at PI3K-δ (p110δ/p85α) it was 7.13 nM; on PI3K-γ (p110γ), 49.1 nM. In addition, in assay [1], the “Total nuclear TRF1 levels compared to DMSO” value is recorded as “decreased”. Further, the “TRF1 mRNA levels” value in assay [2] is on record as “None of the inhibitors significantly affected”.
